In US8222210B2 (priority 2005, dated 2012):
Each block holds one molecule with its values, some of them ahead of it.

Key:
NK1 receptor [1] = assay: rabbit iris sphincter smooth muscle contraction; type: cell-based, New Zealand White rabbits; conditions: for biological activity relative to SP: rabbit iris sphincter muscle contraction
Text: The biological assay chosen for this study was smooth muscle contraction with the rabbit iris sphincter. […] The conformational investigations involved ^1H-NMR analyses of a set of β-MeF-containing SP analogs, and a computational study of the effects that the introduction of a β-methyl group in the Phe^7 and/or Phe^8 residues has upon an energy minimized structure of the peptide, using the helical structure of SP derived by Young et al. (1994) as a starting point for the calculations.
New Zealand White rabbits were sacrificed by an i.v. overdose of sodium pentobarbital. The eyes were then enucleated and the iris/ciliary body was isolated. Central regions of the iris sphincter muscle was then isolated and the tissue bisected, producing two iris sphincter muscle preparations. The muscle strips were connected to a Grass force-displacement transducer with an initial loading force of 100 mg placed on the muscle. The tissue was then allowed to equilibrate for 60 minutes. Contractions were recorded by a Grass 7 Physiograph. Tissues were bathed at 37° C. in a 50 ml modified Ringer's solution (90 mM NaCl, 3.6 mM KCl, 20 mM HEPES (sodium salt), 0.6 mM MgCl, 7.5 mM Na2SO4, 1.4 mM Ca-gluconate, 20 mM NaHCO3, 0.6 mM MgSO4, 0.6 mM K2HPO4 and 26 mM glucose). The Ringer's solution was gassed with 95% air/5% CO2 (pH 7.4). […] To block potential proteolytic effects the following proteolysis inhibitors were added: 1 μM thiorphan, 1 μM phosphoramidon, 1 μM captopril, 3 μg/ml leupeptin, and 3 μg/ml chymostatin.
To evaluate the viability of each muscle preparation, maximum contraction was determined by a 10^−5 M dose of carbachol at the beginning and end of each experiment. Following the initial carbachol dose, tissues were washed by three exchanges of Ringer's solutions. Previous studies have shown that this is sufficient to remove carbachol from these solutions and to return the resting tension to normal values. Each peptide was then evaluated for its ability to induce sphincter muscle contraction, and dose-response curves (from 2×10^−11 to 7×10^−7 M) were determined. A minimum of four determinations were performed for each experimental condition. The dose response curves were fit by means of a nonlinear regression analysis program (Sigma Plot®, Jandel Scientific).
Therefore, since the binding of SP to the NK1 and NK3 receptors in the rabbit iris differs by a factor of over 20, it is reasonable to assume that the contraction of the rabbit iris sphincter by βMeF-containing SP analogs primarily reflect the activation of the NK1 receptor.

[2] = tested on: full thickness skin punch wounds; assay: full thickness skin punch wound healing in a rat model (topical, AQUAPHOR); type: in vivo, Sprague-Dawley rats; conditions: for percentage decrease of the wound area versus control wounds (paired T-test): SP p<0.025, selenocystamine at the 0.05 level; for % decrease in wound size (wound area day 6 compared with day 0): rat punch wound, topical once a day, SP 0.05%, selenocystamine 10 ug Se/ml
Procedure: In addition, selenocystamine was tested as a potential wound treatment at the same time.
Twenty-one male Sprague-Dawley rats weighing between 300-350 g were used in this study. The rats were housed in the temperature controlled vivarium at Texas Tech Health Science Center with a 12-hour alternating light cycle, and were provided water and rat chow ad libitum. Animals were allowed several days of adjustment upon arrival before the surgery to get rehydrated and familiar with the environment. The study protocol was approved by the Texas Tech University Health Sciences Center Animal Care and Use Committee which assured that the animals received humane care.
On the day of the surgery (day 0), the rats were weighed and anesthetized with 1 ml/kg intraperitoneal (IP) injection of the solution made up of 3 parts XYLAZINE® and 7 parts of KETASET®. The animals' backs and necks were shaved and prepared aseptically. Lack of response to tail pinch and absence of a righting reflex were used as indications that anesthesia was adequate. Supplemental anesthetic was administered IP as necessary to maintain an adequate anesthesia.
A 7 mm-diameter punch (George Tiemann & Co.) was used to introduce the punch wound. The procedure was to fold the skin along the sagittal axis and put it down left or right side (rotate animal by animal) against a hard surface, then to thrust the punch through the two layers of skin. In this way, two identical punch wounds were obtained. Four wounds were introduced on each animal. The four wounds were arranged in two columns parallel to the sagittal axis and two rows parallel to the transverse axis.
After the wound procedure, three different treatments were assigned to the wounds. […] The two under were assigned selenocystamine treatment. For the control wound, a drop of normal saline was applied followed by a layer of AQUAPHOR™ to cover the wound. For the SP wound, a drop of 0.05% (0.5 mg/ml) SP water solution was applied followed by a layer of 0.05% (0.5 mg/g) SP-AQUAPHOR™ to cover the wound. For the selenocystamine wounds, a drop of selenocystamine water solution (10 ug Se/ml) was applied to each wound followed by a layer of selenocystamine-AQUAPHOR™ ([…]) to cover the wound. Then gauze and tape were applied to secure the wound. The animals were held under warming lights and observed until they were fully recovered from the anesthesia and then were returned to the vivarium. All the treatment agents and placebo were stored in a refrigerator. Dressing changes and treatments were performed once a day until the animals were sacrificed on day 6. The assignments and dosage of the treatments were as described above.
Following the surgery, the wounds were measured in two dimensions: sagittal and transverse. Photographs were taken using a PENTAX® ESPIO 928 camera and Kodak® ISO 200 color film. After the animals were sacrificed on day 6, the eschars covering the wounds were removed. Then the wounds were again measured in two dimensions, and photographs were taken.
The animals were sacrificed on day 6 after the surgery by euthanasia with […]® (Sodium Pentobarbital, 7.9% isopropanol, euthanasia solution). The entire wound plus a 1 mm margin of normal skin from each of the test and control wound sites on each animal was excised and preserved in buffered formalin.
The product obtained by multiplying the two measurements of each wound was referred to as the area of the wound. The percentage of the decrease of the wound area on day 6 compared with day 0 was used to evaluate the rate of healing. Since the exact time of wound healing was difficult to determine, day 6 was chosen.
Mean and standard deviations were determined on the difference of the percentage of the wound area decrease between each treatment and the control. Significant differences between treatments and the control were determined by paired T-test to see if the percentage of the decrease in wound area was greater for the treated wounds than for the control wound. […]

cellular growth = cellular growth promoting activity (description); type: cell-based
NK1 receptor [3] = target: NK1 receptor (Homo sapiens, UniProt P25103); conditions: cited from earlier work
full thickness wound = assay: full thickness 7 mm punch wound in the back of rats, hyaluronic acid vehicle (FIG. 10); type: in vivo; conditions: after 6 days, 16 rats, both wounds received hyaluronic acid vehicle
Text: FIG. 10 represents the percent healing after 6 days for a full thickness wound in the back of 16 different rats. The initial wound size was a 7 mm punch wound. Each rat received two wounds, a control (no SP) and an SP treated wound. Both wounds received a hyaluronic acid vehicle.
Supplemental growth factors have the ability to accelerate wound healing in a variety of experimental animal models (EE). This has even led to clinical trials. However, the human studies have not been as successful as the animal models. Due to the complexity of the interaction of different growth factors, it is likely that the right combination of different growth factors has not been explored.

NK1 and NK3 receptors = conditions: rabbit iris; cited from earlier work

Sequence of NK1 receptor (Homo sapiens, UniProt P25103) (P25103 whole entry, species assumed): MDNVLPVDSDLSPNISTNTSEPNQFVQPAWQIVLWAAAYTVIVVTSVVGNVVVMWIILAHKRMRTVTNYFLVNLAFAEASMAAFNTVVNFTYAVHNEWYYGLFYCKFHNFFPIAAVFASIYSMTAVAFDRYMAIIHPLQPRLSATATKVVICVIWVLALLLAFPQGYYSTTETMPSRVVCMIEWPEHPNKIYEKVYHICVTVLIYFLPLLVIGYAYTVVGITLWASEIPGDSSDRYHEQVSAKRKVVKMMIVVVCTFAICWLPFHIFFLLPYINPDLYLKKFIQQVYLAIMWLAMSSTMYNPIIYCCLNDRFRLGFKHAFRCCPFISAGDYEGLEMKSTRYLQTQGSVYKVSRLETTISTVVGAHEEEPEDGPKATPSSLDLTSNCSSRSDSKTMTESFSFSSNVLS

biological activity relative to SP (NK1 receptor [1]): the least active analog
Molecule: 7R,8R-(βMeF)2SP: Substance P analog with R-β-methylphenylalanine at positions 7 and 8
biological activity relative to SP (NK1 receptor [1]; listed as 7R,8R-(β-MeF)2SP): diminish the biological activity by a factor of ten

biological activity relative to SP (NK1 receptor [1]): most active disubstituted SP analogs | biological activity relative to SP (NK1 receptor [1]; listed as 7R,8S-(β-MeF)2SP): enhance the activity
Molecule: 7R,8S-(βMeF)2SP: Substance P analog with R-β-methylphenylalanine at position 7 and S- at position 8

biological activity relative to SP (NK1 receptor [1]): equipotent to SP
Molecule: 7R-(βMeF)SP: Substance P analog with R-β-methylphenylalanine at position 7

biological activity relative to SP (NK1 receptor [1]): equipotent (to SP) | biological activity relative to SP (NK1 receptor [1]; listed as 7S,8R-(β-MeF)2SP): do not significantly alter the activity
Molecule: 7S,8R-(βMeF)2SP: Substance P analog with S-β-methylphenylalanine at position 7 and R- at position 8

biological activity relative to SP (NK1 receptor [1]): most active disubstituted SP analogs | biological activity relative to SP (NK1 receptor [1]; listed as 7S,8S-(β-MeF)2SP): enhance the activity
Molecule: 7S,8S-(βMeF)2SP: Substance P analog with S-β-methylphenylalanine at positions 7 and 8

biological activity relative to SP (NK1 receptor [1]): slightly more active than SP
Molecule: 7S-(βMeF)SP: Substance P analog with S-β-methylphenylalanine at position 7

biological activity relative to SP (NK1 receptor [1]): the most active SP analog | biological activity relative to SP (NK1 receptor [1]; listed as R-β-MeF into position 8 of SP): four-fold enhancement
Molecule: 8R-(βMeF)SP: Substance P analog with R-β-methylphenylalanine at position 8

biological activity relative to SP (NK1 receptor [1]; listed as S-β-MeF into position 8 of SP): ten-fold reduction
Molecule: 8S-(βMeF)SP: Substance P analog with S-β-methylphenylalanine at position 8
biological activity relative to SP (NK1 receptor [1]): the least active of the monosubstituted analogs

Molecule: NCC[Se][Se]CCN [selenocystamine, reference compound]
percentage decrease of the wound area versus control wounds (paired T-test) ([2]; day 6): not significantly higher than the control | % decrease in wound size (wound area day 6 compared with day 0) ([2]; day 6): 31.8±18.3% | wound enlargement (one wound of the group) ([2]; six day period): 2.9%

Molecule: QFFGLM (SEQ ID NO:8) (listed as Homo sapiens) [SP6-11, reference compound]
cellular growth promoting activity (cellular growth): active in promoting cellular growth | activity as % of that found for the whole SP molecule (NK1 receptor [3]): 50-90%

doses producing a rapid increase in the force of contraction (NK1 receptor [1]; rabbit iris sphincter muscle): greater than 10^−10 M | maximum effective dose (NK1 receptor [1]; rabbit iris sphincter muscle): 10^−7 M
Molecule: RPKPQQFFGLM (SEQ ID NO:1) [SP]
percentage decrease of the wound area versus control wounds (paired T-test) ([2]; day 6): significantly higher than that of the control wounds | % decrease in wound size (wound area day 6 compared with day 0) ([2]; day 6): 41.6±15.0% | wound with the greatest decrease in size ([2]; single wound of the treatment group, day 6): 66.7% | control wounds showing more percent healing than the SP wound on the same rat (full thickness wound): 4 out of 16 | factor by which binding to NK1 and NK3 receptors differs (NK1 and NK3 receptors): over 20

Molecule: SEQ ID NO:9: substitution peptide where norleucine has been substituted for the C-terminus methionine in Substance P (RPKPQQFFGLX; (11)..(11) Norleucine; listed as Homo sapiens)
cellular growth promoting activity (cellular growth): enhanced activity under at least some treatment conditions
